From patent US9422248B2 (University of Iowa Research Foundation, priority 2012, dated 2016)
Several values for one entry are separate records, joined by “and”; a condition that tells them apart may be missing. Equal values may be shown once. Read-outs that look alike come from different tables or passages of the source.

Experiments:
[1] = test system: scMET model (pentylenetetrazole, Metrazol); assay: scMET test (subcutaneous Metrazol); assay type: in vivo, mouse; settings: for responders at 30 mg/kg / responders at 100 mg/kg / responders at 300 mg/kg: Mus musculus, scMET, read-out: number of animals protected/number of animals tested; for responders at 30 mg/kg: 30 mg/kg ip; for responders at 100 mg/kg: 100 mg/kg ip; for responders at 300 mg/kg: 300 mg/kg ip
Description: (§1) All compounds (FIG. 1) were screened in three whole mouse models: the maximal electroshock model (MES), the scMET test (pentylenetetrazole, Metrazol), and the 6 Hz psychomotor seizure model of partial epilepsy (32 mA). Adult male CF No 1 albino mice (26-30 g) were used for the 6 Hz test and 18-25 g mice were used in the MES and scMet tests. The animals are housed, fed, and handled in a manner consistent with the recommendations in the National Council Publication, “Guide for the Care and Use of Laboratory Animals”. The animal studies were performed by the NINDS Anticonvulsant Screening Program under IACUC number 09-12014. All compounds were administered ip in polyethylene glycol, 30%.
(§2) The MES model, which generates generalized tonic-clonic seizures, involved pretreating mice with experimental compound, and administering 60 Hz of alternating current (50 mA) for 2 s via corneal electrodes. Prior to current administration, the animal's corneas were treated topically with 1% tetracaine. Animals are considered protected if the hindlimb tonic extensor component is absent. The scMET test was done by pretreating mice with experimental compound and administering 85 mg/kg Metrazol into the loose folds of the skin in the midline of the neck. Eighty-five mg/kg Metrazol is the dose that causes seizures in 97% (CD97) of control animals.

6 Hz (32 mA) model = assay: 6 Hz (32 mA) psychomotor seizure model of partial epilepsy; assay type: in vivo, mouse; settings: for ED50: ip; for complete protection, animals: 6 Hz, one or more time points from 0.25 or 1 h; for antiseizure activity in the 6 Hz model: mouse, in vivo; for Protective effects, number of animals protected/number of animals tested: 100 mg/kg ip
Description: as §1
(§3) The 6 Hz test (also known as the minimal clonic seizure, or psychomotor test) involved delivering a corneal stimulus of 32 mA for 3 s. This current elicits psychomotor seizures in 97% of untreated animals. Seizures consist of a minimal clonic phase followed by stereotyped automatistic behaviors. Animals not showing such behaviors were considered protected. Toxicity was determined by the rotorod test. For this test, the animal is placed on a rotorod at 6 rpm following dosing. The animal is considered toxic if it falls off the rotorod three times in a 1 min period. The ED50, TD50 and confidence intervals were determined by probit analysis.

rotorod test = assay: Toxicity by the rotorod test; assay type: in vivo; settings: for TD50: rotorod, ip, probit analysis
Description: All compounds (FIG. 1) were screened in three whole mouse models: the maximal electroshock model (MES), the scMET test (pentylenetetrazole, Metrazol), and the 6 Hz psychomotor seizure model of partial epilepsy (32 mA). Adult male CF No 1 albino mice (26-30 g) were used for the 6 Hz test and 18-25 g mice were used in the MES and scMet tests. The animals are housed, fed, and handled in a manner consistent with the recommendations in the National Council Publication, “Guide for the Care and Use of Laboratory Animals”. […] All compounds were administered ip in polyethylene glycol, 30%.
as §3, with “This current elicits psychomotor seizures in 97% of untreated animals.” left out

[2] = test system: maximal electroshock (MES) model; assay: maximal electroshock (MES) model; assay type: in vivo, mouse; settings: for responders at 30 mg/kg / responders at 100 mg/kg / responders at 300 mg/kg: Mus musculus, MES; for responders at 30 mg/kg: 30 mg/kg ip; for responders at 30 mg/kg / responders at 300 mg/kg: read-out: number of animals protected/number of animals tested; for responders at 100 mg/kg: 100 mg/kg ip, read-out: number of animals protected/number of animals tested (converted); for responders at 300 mg/kg: 300 mg/kg ip
Description: as §1, §2

[3] = Mus musculus, 6 Hz (32 mA), probit analysis, read-out: ED50

SMILES	responders at 30 mg/kg ([1]; 0.5 h) [%]	responders at 30 mg/kg ([1]; 4 h) [%]	responders at 100 mg/kg ([1]; 0.5 h) [%]	responders at 100 mg/kg ([1]; 4 h) [%]	responders at 300 mg/kg ([1]; 0.5 h) [%]	responders at 300 mg/kg ([1]; 4 h) [%]	ED50 (6 Hz (32 mA) model; 6 Hz (32 mA), probit analysis) [mg/kg]	complete protection, animals (6 Hz (32 mA) model; 100 mg/kg)	ED50 (6 Hz (32 mA) model; [3]) [mg/kg]	TD50 (rotorod test)	responders at 30 mg/kg ([2]; 0.5 h) [%]	responders at 30 mg/kg ([2]; 4 h) [%]	responders at 100 mg/kg ([2]; 0.5 h) [%]	responders at 100 mg/kg ([2]; 4 h) [%]	responders at 300 mg/kg ([2]; 0.5 h) [%]	responders at 300 mg/kg ([2]; 4 h) [%]	MES protection ([2]; any dose (30-300 mg/kg ip))	antiseizure activity in the 6 Hz model (6 Hz (32 mA) model)	MES protection ([2]; 300 mg/kg dose)	MES protection, time points after dosing ([2]; 300 mg/kg dose)	other results
CC(C)c1cc(C(O)C(F)(F)F)cc(Br)c1O (stereo not drawn) [RM122, 2-Bromo-6-isopropyl-4-(2,2,2-trifluoro-1-hydroxy-ethyl)-phenol]	0	0	0	0	0	0	112.45	4 of 4	112	403 mg/kg and 403.12 mg/kg	0	0	0	0	0	0	no MES protection	–	–	–	–
CC(C)c1cc(C(O)C(F)(F)F)ccc1O (stereo not drawn) [RM125, 2-iso-Propyl-4-(2,2,2-trifluoro-1-hydroxy-ethyl)-phenol]	0	0	0	0	100	100	84.12	4 of 4	84	161.12 mg/kg	0	0	0	0	100	100	–	relatively good antiseizure activity	some protection	protection at both 0.5 and 4 h	scMET protection, time points after dosing ([1]; 300 mg/kg dose): protection at the highest 300 mg/kg dose at 0.5 and 4 h; responders at 100 mg/kg ([2]; 0.25 h): 0%; responders at 100 mg/kg ([2]; 1 h): 33.3%; responders at 100 mg/kg ([2]; 2 h): 33.3%; responders at 100 mg/kg ([2]; 6 h): 0%
CCC(C)c1cc(C(O)C(F)(F)F)cc(Br)c1O (stereo not drawn) [RM129, 2-Bromo-6-sec-Butyl-4-(2,2,2-trifluoro-1-hydroxy-ethyl)-phenol]	0	0	0	0	0	0	–	4 of 4	–	144.4 mg/kg	0	0	0	0	100	0	–	–	some protection	protected only at 0.5 h	ED50 (6 Hz (32 mA) model; Mus musculus): 87.6 mg/kg; responders at 100 mg/kg ([2]; 0.25 h): 0%; responders at 100 mg/kg ([2]; 1 h): 0%
CCC(C)c1cc(C(O)C(F)(F)F)ccc1O (stereo not drawn) [RM131, 2-sec-Butyl-4-(2,2,2-trifluoro-1-hydroxy-ethyl)-phenol]	0	0	0	0	100	0	53.85	4 of 4	53.8	86 mg/kg and 86.04 mg/kg	0	0	0	0	100	0	–	relatively good antiseizure activity	some protection	protected only at 0.5 h	–
CCc1cc(C(O)C(F)(F)F)ccc1O (stereo not drawn) [RM166, 2-Ethyl-4-(2,2,2-trifluoro-1-hydroxy-ethyl)-phenol]	0	0	0	0	0	0	–	–	–	–	0	0	0	0	0	0	no MES protection	–	–	–	protective effects in the 6 Hz test (6 Hz (32 mA) model; 100 mg/kg, any time point from 0.25 to 4 h): no protective effects; Protective effects, number of animals protected/number of animals tested (6 Hz (32 mA) model; 6 Hz (32 mA), 0.25 h): 0/4; Protective effects, number of animals protected/number of animals tested (6 Hz (32 mA) model; 6 Hz (32 mA), 0.5 h): 0/4; Protective effects, number of animals protected/number of animals tested (6 Hz (32 mA) model; 6 Hz (32 mA), 1 h): 0/4; Protective effects, number of animals protected/number of animals tested (6 Hz (32 mA) model; 6 Hz (32 mA), 2 h): 0/4; Protective effects, number of animals protected/number of animals tested (6 Hz (32 mA) model; 6 Hz (32 mA), 4 h): 1/4; Toxicity, animals/number of animals tested (rotorod test; dose 100 mg/kg ip, 0.5 h): 0/8; Toxicity, animals/number of animals tested (rotorod test; dose 100 mg/kg ip, 4 h): 0/4; Toxicity, animals/number of animals tested (rotorod test; dose 30 ip, 0.5 h): 0/4; Toxicity, animals/number of animals tested (rotorod test; dose 30 ip, 4 h): 0/2; Toxicity, animals/number of animals tested (rotorod test; dose 300 ip, 0.5 h): 0/4; Toxicity, animals/number of animals tested (rotorod test; dose 300 ip, 4 h): 0/2; evidence of toxicity (rotorod test; doses up to 300 mg/kg): Neither RM170 nor RM166 showed any evidence of toxicity
